For test [1], the system named is CD62P (P-selectin) expression on platelets. The experiment in a line: Platelet CD62P (P-selectin) expression by fluorescence flow cytometry in whole blood of patients before and after anti-platelet therapy and PTCA. Format: in vivo, human. Particulars: for mean CD62P expression (percent positive events): Clopidogrel patients n=29, 300 mg loading dose and PTCA, baseline 9.5±3.3%; for mean CD62P expression (percent positive events) / CD62P percent positive expression / CD62P expression (percent positive events): mean±SE; for CD62P percent positive expression: patients with high baseline platelet activation, baseline 23.4±6.6%, p<0.01; for CD62P expression (percent positive events): abciximab patients n=15, 0.25 mg/kg bolus plus infusion and PTCA, baseline 9.3±4.0%. On the procedure: (§1) Patients. A total of 44 patients who underwent elective percutaneous coronary angioplasty and stenting were evaluated. The study was approved by the institutional committee on human research. Patients were enrolled in the study after informed consent had been obtained. Their baseline variables including age, gender, smoking history, risk factors, antecedents and medication were documented. These patients received either a loading dose of Clopidogrel (300 mg) before the beginning of the PTCA procedure followed by 75 mg daily for 1 month or intravenously a 0.25 mg/kg, bolus of Abciximab before the beginning of the PTCA procedure followed by a 0.125 μg/kg/mn infusion for 12 h.
(§2) Blood collection. Blood was drawn with a 21-gauge needle into EDTA (5 mM) tubes, mixed immediately with the anticoagulant and avoiding frothing during the mixing procedure. The first 1-2 ml of blood were discarded to avoid the effects of traces of thrombin generated during venipuncture. Serum was collected for CRP measurements. Whole blood specimens for measurement of the ADVIA® 120 Hematology System platelet parameters and flow cytometry analysis were taken prior to baseline, 2 hours, and 24 hours after administration of anti-platelet therapy and PTCA. For platelet activation measurements, all specimens were processed within 1 h after blood collection.
Fluorescence flow cytometry analysis. Whole blood samples were fixed with methanol-free paraformaldehyde (final concentration 0.5%). Fixed blood (5 μl) was incubated at room temperature for 15 min in the dark with monoclonal antibody CD61a-FITC. (10 μl) to identify the platelets and CD62P-PE (10 μl) to measure the expression of P-selectin. Platelets labeled with FITC or PE-conjugated isotype control antibody were used as control for nonspecific staining.
Samples were diluted to 1 ml with PBS. FACScan calibration and compensation were performed as recommended by the manufacturer. Five thousand (5,000) CD61a positive events were acquired on the FACScan flow cytometer (Becton Dickinson, Franklin Lakes, N.J.) equipped with Lysis II software. Data analysis was performed using a threshold based on the FITC-fluorescence correlating to the platelet specific binding of CD61a-FITC antibodies. A gate was drawn around the fluorescent platelet population. The CD61a-FITC labeled platelets that were also positive for PE-conjugated activation marker antibody (CD62P) was quantitated and presented as percentage of positive events.
(§3) Patients. A total of 44 patients who underwent elective percutaneous coronary angioplasty and stenting were evaluated Patients were enrolled in the study after informed consent had been obtained. Their baseline variables including age, gender, smoking history and medication were documented. The treatments were assigned based on the angiographic characteristics. Patients with presence of thrombus and high risk vessel disease were assigned to Abciximab. Two thirds (n=29) of patients received a loading dose of Clopidogrel (300 mg) before the beginning of the PTCA procedure followed by 75 mg daily for 1 month. One third (n=15) of patients received a 0.25 mg/kg bolus of Abciximab intravenously before the beginning of the PTCA procedure followed by a 0.125 μg/kg/min infusion for 12 h. These patients also received Clopidogrel a designated number of hours after PTCA.
Collection of blood. Blood was drawn with a 21-gauge needle into EDTA (5 mM) tubes, mixed immediately with the anticoagulant, and avoiding frothing during the mixing procedure. The first 1-2 ml of blood were discarded to avoid the effects and traces of thrombin generated during venipuncture. Universal precautions were taken at all times during phlebotomy. […]

Test [2] deals with platelets (platelet activation). Nature of the test: Mean platelet component concentration (MPC, platelet density) on the ADVIA 120 Hematology System in whole blood of patients before and after anti-platelet therapy and PTCA. Format: in vivo, human. As to conditions: for mean MPC level: Clopidogrel patients n=29, baseline 27.8±0.4 g/dL; for mean MPC level / MPC level: mean±SE; for MPC level: abciximab patients n=15, baseline 28.0±0.3 g/dL. On the procedure: as §1, §2
Bayer ADVIA 120 automated hematology system platelet density measurement. The two-dimensional platelet method is based on the analysis of platelets in whole blood by flow cytometry using the ADVIA 120. The system was standardized and calibrated as per the manufacturer's instructions. The ADVIA 120 Hematology System was quality-controlled using TESTpoint Hematology control reagents (Bayer HealthCare, LLC, Tarrytown, N.Y.). The whole blood specimens anticoagulated with EDTA were processed within 1 h after specimen collection. […] See Macey M. G. et al., Cytometry (1999) 38:250-255; Chapman E. S. et al., Thromb. Haemost. (2003) 89:1004-1015; Ahnadi C. E. et al., Thromb. Haemost (2003) 90:940-948. In this study, MPC determinations were acquired as a measure of platelet activation at baseline, 2 hours, and 24 hours after anti-platelet drug therapy.
as §3
Collection of blood. Blood was drawn with a 21-gauge needle into EDTA (5 mM) tubes, mixed immediately with the anticoagulant, and avoiding frothing during the mixing procedure. The first 1-2 ml of blood were discarded to avoid the effects and traces of thrombin generated during venipuncture. Universal precautions were taken at all times during phlebotomy. Whole blood specimens for measurement of the ADVIA 120 System platelet parameters and CD62P-PE flow cytometry analysis were taken prior to baseline, 2 h, 5 h, and 24 h after administration of a loading charge of Clopidogrel and percutaneous transluminal coronary angioplasty (PTCA), and prior to, 10 min, 2 h, and 24 h after administration of the Abciximab bolus and PTCA. All specimens were processed within 1 h after blood collection.
Bayer ADVIA 120 Automated Hematology System platelet density measurement. […]

The subject of test [3] is platelet activation markers CD62, CD63, and PAC-1. As to conditions: after stimulation with ADP or thrombin; healthy subjects and patients after myocardial infarction; cited from earlier work.

As for `COC(=O)[C@H](c1ccccc1Cl)N1CCc2sccc2C1` [Clopidogrel], the results for the “mean CD62P expression (percent positive events)” value in test [1] (2 h), in test [1] (5 h) and in test [1] (24 h) were 3.1±1.8%, 1.2±0.7% and 1.8±1.1%, respectively. In test [1] (group of patients with the greatest baseline platelet activation), the “platelet activation as determined by both CD62P decrease and increasing MPC” value is reported as “significant reduction”. Also, the entries for the “CD62P percent positive expression” value in test [1] (2 h), in test [1] (5 h) and in test [1] (24 h) were 2.0±1.0%, 0.3±0.1% and 1.5±0.5%, respectively. The “mean MPC level” value came to 28.4 ± 0.3 g/dL in test [2] (2 h), 28.9 ± 0.2 g/dL in test [2] (5 h) and 28.7 ± 0.2 g/dL in test [2] (24 h). The MPC value in test [2] (patients with high baseline platelet activation, 2 h, baseline 25.7±0.8 g/dL, p<0.01) came out at 28.0 ± 0.5 g/dL; in test [2] (patients with high baseline platelet activation, 5 h, baseline 25.7±0.8 g/dL, p<0.01), 28.8 ± 0.3 g/dL; in test [2] (patients with high baseline platelet activation, 24 h, baseline 25.7±0.8 g/dL, p<0.01) it was 28.4 ± 0.3 g/dL. In addition, in test [3], the “expression of platelet activation markers CD62, CD63, and PAC-1” value is “suppresses expression”.
As to `CC(=O)Oc1ccccc1C(=O)O` [aspirin], the platelet inhibition effect result in test [1] (patients on aspirin therapy before admission, by the classic (CD62P) or new (MPC) platelet activation measurements) is on record as “not demonstrated”.

B1: Abciximab (antibody, chains of the INN, looked up, V domains shown)
VH: EVQLQQSGTVLARPGASVKMSCEASGYTFTNYWMHWVKQRPGQGLEWIGAIYPGNSDTSYIQKFKGKAKLTAVTSTTSVYMELSSLTNEDSAVYYCTLYDGYYVFAYWGQGTLVTVSA
VL: EIVLTQSPVTLSVTPGDSVSLSCRASRDISNNLHWFQQTSHESPRLLIKYASQSMSGIPSRFSGSGSGTDFTLSINSVETEDFGMYFCQQTNSWPYTFGGGTKLEIK
modifications: Fab
notes: the monoclonal antibody, abciximab
For the molecule B1, the “CD62P expression (percent positive events)” value was determined as 7.9±5.4% in test [1] (2 h) and 0.7±0.3% in test [1] (24 h). The same molecule displayed a CD62P-PE value in test [1] (one patient, 2 hours after Abciximab and angioplasty, baseline 4.2%, complications of pacemaker installation) of 75%. Also, the values for the MPC level in test [2] (10 min), in test [2] (2 h) and in test [2] (24 h) were 27.9 ± 0.3 g/dL, 28.0 ± 0.4 g/dL and 28.4 ± 0.2 g/dL, respectively. Further, the MPC value in test [2] (one patient, 2 hours after Abciximab and angioplasty, baseline 28.3 g/dL, complications of pacemaker installation) was found to be 22.8 g/dL.

The values are drawn from US7723064B2, “Methods for monitoring patients for efficacy of an antiplatelet therapy regimen” (Siemens Healthcare Diagnostics Inc., priority 2004, dated 2010).
